In the test the test system is TNF-alpha. Nature of the test: Inhibition of TNF Release From Whole Blood. Conditions: human whole blood diluted 1:2 in PBS, LPS 5 ng/ml, incubated at 37° C. overnight, TNF-alpha in supernatants by ELISA. In kind it is cell-based. The protocol: Human blood was freshly drawn from healthy donors and collected in vacutainers. Blood was diluted 1:2 in PBS (tissue culture, pyrogen free) in a sterile bottle and inverted to mix well. Aliquots of 0.5 ml of blood mixture were dispensed into cluster tubes in 96 well format.
Dilutions of the test compounds were prepared in RPMI by taking 100 mM DMSO stocks of the compounds and diluting 1:10 in RPMI medium in eppendorfs, to give a 10 mM stock. 1:5 serial dilutions were prepared from the stock solutions.
LPS was kept at a frozen stock (−20 degrees C.) at 1 mg/ml in PBS and then diluted to 1:10 with RPMI medium and finally diluted in the medium again 1:350. 50 μl of each test compound (first concentration was 100 uM) were added to the blood samples and then stimulated with 10 μl LPS (final concentration in the well is 5 ng/ml). The contents were gently mixed using an 8 well multi-channel pipette and incubated at 37° C. overnight. At the end of the incubation time, contents were gently mixed, then spun down at 1000×g for 5 mins at 20° C. The serum supernatants were transferred to a fresh plate without disturbing the RBCs and diluted 1:2 with the diluent RD6C.
TNF-alpha levels of supernatants were assayed using the R+D systems ELISA kit, using R+D systems protocol. Samples were read at 450 nm. The compounds shown in Table 1 were tested in the above assay. In this TNF-alpha assay, category “A” indicates an IC50 value of <500 nM. Category “B” indicates an IC50 value of 500-1000 nM. […] Category “D” indicates an IC50 value of >2000 nM.
For `C[C@@H](C(=O)NC(CC(=O)O)C(=O)CF)n1ccc2ccccc2c1=O` (stereo partly shown), the IC50 fell in the range of 1000 to 2000 nM.

`CC(C)[C@@H](C(=O)NC(CC(=O)O)C(=O)CF)n1cnc2ccccc2c1=O` (stereo partly shown) had a 50% inhibitory concentration (IC50) of 500 to 1000 nM.

Regarding `O=C(O)CC(NC(=O)[C@@H]1CCCCN1C(=O)OCc1cc(Cl)cc(Cl)c1)C(=O)CF` (stereo partly shown), the IC50 lay in the range of 1000 to 2000 nM.

`CC[C@@H](C(=O)NC(CC(=O)O)C(=O)CF)n1ccc2ccc(Cl)cc2c1=O` (stereo partly shown) registered an IC50 of less than 500 nM.

`CC[C@@H](C(=O)NC(CC(=O)O)C(=O)CF)n1cnc2ccc(Cl)cc2c1=O` (stereo partly shown) had an IC50 of less than 500 nM.

`CC[C@@H](C(=O)NC(CC(=O)O)C(=O)CF)n1cnc2ccc(Oc3ccccc3)cc2c1=O` (stereo partly shown): the IC50 is 500 to 1000 nM.

Consider `CC[C@@H](C(=O)NC(CC(=O)O)C(=O)COc1c(F)c(F)cc(F)c1F)n1cnc2ccccc2c1=O` (stereo partly shown), for which the IC50 fell in the range of 1000 to 2000 nM.

For the compound `CC[C@@H](C(=O)N[C@@H](CC(=O)O)C(=O)COc1c(F)c(F)cc(F)c1F)n1cnc2ccc(Cl)cc2c1=O`, the IC50 lay in the range of 1000 to 2000 nM.

In turn, `O=C(O)CC(NC(=O)[C@@H]1CCCCN1C(=O)OCc1cccc(Cl)c1F)C(=O)CF` (stereo partly shown) showed an IC50 of less than 500 nM.

For `O=C(O)CC(NC(=O)[C@@H]1CCCCN1C(=O)OCc1cc(F)ccc1F)C(=O)CF` (stereo partly shown), the IC50 is less than 500 nM.

For `CCC[C@@H](C(=O)NC(CC(=O)O)C(=O)CF)n1ccc2ccccc2c1=O` (stereo partly shown), the IC50 is less than 500 nM.

In the case of `Cc1ccccc1COC(=O)N1CCCC[C@H]1C(=O)NC(CC(=O)O)C(=O)CF` (stereo partly shown), the IC50 is less than 500 nM.

`CC[C@@H](C(=O)NC(CC(=O)O)C(=O)CF)n1cnc2ccc(Oc3ccccc3Cl)cc2c1=O` (stereo partly shown) displayed an IC50 of more than 2000 nM.

Turning to `CC[C@@H](C(=O)NC(CC(=O)O)C(=O)CF)n1cnc2ccc(Oc3cccc(Cl)c3)cc2c1=O` (stereo partly shown), the IC50 is more than 2000 nM.

`CC[C@@H](C(=O)NC(CC(=O)O)C(=O)CF)n1cnc2ccc(Oc3cccc(F)c3)cc2c1=O` (stereo partly shown) showed an IC50 of more than 2000 nM.

`CC[C@@H](C(=O)NC(CC(=O)O)C(=O)CF)n1cnc2ccc(Sc3cccc(F)c3)cc2c1=O` (stereo partly shown) showed an IC50 of 1000 to 2000 nM.

With `CC[C@@H](C(=O)NC(CC(=O)O)C(=O)CF)n1ccc2ccc(C(F)(F)F)cc2c1=O` (stereo partly shown), the IC50 lay in the range of 500 to 1000 nM.

The compound `Cc1cccc(COC(=O)N2CCCC[C@H]2C(=O)NC(CC(=O)O)C(=O)CF)c1` (stereo partly shown) registered an IC50 of 500 to 1000 nM.

For the compound `CC[C@@H](C(=O)N[C@@H](CC(=O)O)C(=O)COP(=O)(c1ccccc1)c1ccccc1)n1cnc2ccccc2c1=O`, the IC50 was more than 2000 nM.

Regarding `CC[C@@H](C(=O)NC(CC(=O)O)C(=O)COc1c(F)c(F)cc(F)c1F)n1ccc2ccc(Cl)cc2c1=O` (stereo partly shown), the IC50 lay in the range of 1000 to 2000 nM.

Compound `CCCSc1ccc2ncn([C@@H](CC)C(=O)NC(CC(=O)O)C(=O)CF)c(=O)c2c1` (stereo partly shown) registered an IC50 of less than 500 nM.

On to `CC[C@@H](C(=O)NC(CC(=O)O)C(=O)CF)n1ccc2ccc(-c3ccccc3)cc2c1=O` (stereo partly shown), for which the IC50 is less than 500 nM.

The compound `CC[C@@H](C(=O)N[C@@H](CC(=O)O)C(=O)COc1c(F)c(F)cc(F)c1F)n1ccc2ccccc2c1=O` came in with an IC50 of 500 to 1000 nM.

Compound `O=C(O)C[C@H](NC(=O)[C@@H]1CCCCN1C(=O)OCc1cc(Cl)ccc1F)C(=O)COc1c(F)c(F)cc(F)c1F` showed an IC50 of more than 2000 nM.

Turning to `CC[C@H](NC(=O)c1ncc[nH]1)C(=O)NC(CC(=O)O)C(=O)CF` (stereo partly shown), the IC50 is less than 500 nM.

Compound `CCC[C@@H](C(=O)NC(CC(=O)O)C(=O)CF)n1cnc2ccccc2c1=O` (stereo partly shown) showed an IC50 of less than 500 nM.

In the case of `CC[C@@H](C(=O)NC(CC(=O)O)C(=O)CF)n1cnc2ccccc2c1=O` (stereo partly shown), the IC50 is less than 500 nM.

For `CC(C)[C@H](NC(=O)OCc1ccccc1)C(=O)NC(CC(=O)O)C(=O)CF` (stereo partly shown), the IC50 was less than 500 nM.

With `O=C(O)CC(NC(=O)[C@@H]1CCCc2cc3ccccc3c(=O)n21)C(=O)CF` (stereo partly shown), the IC50 is less than 500 nM.

Take `CC(C)[C@H](OC(=O)Nc1ccccc1)C(=O)NC(CC(=O)O)C(=O)CF` (stereo partly shown): the IC50 was less than 500 nM.

`Cc1c(C(=O)N[C@H](C(=O)NC(CC(=O)O)C(=O)CF)C(C)C)n(C)c2ccccc12` (stereo partly shown) had an IC50 of less than 500 nM.

For `O=C(O)CC(NC(=O)[C@@H]1CCCCN1C(=O)c1sc2ccccc2c1Cl)C(=O)CF` (stereo partly shown), the IC50 was less than 500 nM.

As for `O=C(O)CC(NC(=O)[C@@H]1CCCc2nc3ccccc3c(=O)n21)C(=O)CF` (stereo partly shown), the IC50 lay within 500 to 1000 nM.

Compound `C[C@H](OC(=O)Nc1ccccc1)C(=O)NC(CC(=O)O)C(=O)CF` (stereo partly shown) displayed an IC50 of 500 to 1000 nM.

With `O=C(O)CC(NC(=O)[C@@H]1CCCCN1C(=O)N1c2ccccc2Sc2ccc(Cl)cc21)C(=O)CF` (stereo partly shown), the IC50 fell in the range of 500 to 1000 nM.

Take `O=C(O)CC(NC(=O)[C@@H]1CCCCN1C(=O)N1c2ccccc2Sc2ccc(C(F)(F)F)cc21)C(=O)CF` (stereo partly shown): the IC50 is more than 2000 nM.

As to `C[C@@H](C(=O)NC(CC(=O)O)C(=O)CF)n1cnc2ccccc2c1=O` (stereo partly shown) [drawing 34], the IC50 is less than 500 nM.

`CC(C)[C@H](OC(=O)n1c2ccccc2c2ccccc21)C(=O)NC(CC(=O)O)C(=O)CF` (stereo partly shown) [drawing 36] yielded an IC50 of 1000 to 2000 nM.

Compound `O=C(O)CC(NC(=O)[C@@H]1CCCCN1C(=O)O[C@H](c1ccccc1)C(F)(F)F)C(=O)CF` (stereo partly shown) [drawing 37] gave an IC50 of less than 500 nM.

The compound `O=C(O)CC(NC(=O)[C@@H]1CCCCN1C(=O)c1ccc(-c2cccc(C(F)(F)F)c2)o1)C(=O)CF` (stereo partly shown) [drawing 39] had an IC50 of more than 2000 nM.

As to `O=C(O)CC(NC(=O)[C@@H]1CCCCN1C(=O)OCc1cc(Cl)ccc1F)C(=O)CF` (stereo partly shown) [drawing 40], the IC50 is less than 500 nM.

The compound `O=C(O)CC(NC(=O)[C@@H]1CCCCN1C(=O)O[C@H](c1ccccc1)C(F)(F)F)C(=O)CF` (stereo partly shown) [drawing 65] yielded an IC50 of less than 500 nM.

As to `C[C@@H](C(=O)NC(CC(=O)O)C(=O)CF)n1cnc2ccccc2c1=O` (stereo partly shown) [drawing 66], the IC50 was less than 500 nM.

Compound `O=C(O)CC(NC(=O)[C@@H]1CCCCN1C(=O)OCc1cc(Cl)ccc1F)C(=O)CF` (stereo partly shown) [drawing 70] registered an IC50 of less than 500 nM.

Turning to `CC(C)[C@H](OC(=O)n1c2ccccc2c2ccccc21)C(=O)NC(CC(=O)O)C(=O)CF` (stereo partly shown) [drawing 76], the IC50 was in the range of 1000 to 2000 nM.

The compound `O=C(O)CC(NC(=O)[C@@H]1CCCCN1C(=O)c1ccc(-c2cccc(C(F)(F)F)c2)o1)C(=O)CF` (stereo partly shown) [drawing 78] showed an IC50 of more than 2000 nM.

The values are drawn from patent US7960398B2, “Regulation of TNF-alpha” (Vertex Pharmaceuticals Incorporated, priority 2002, dated 2011).
